Assay results from the NIST ThermoML archive (doi:10.1021/je060368x).

How the values were obtained:
[1] = xn = mol fraction of the nth substance listed; conditions: 298.15 K, 101 kPa, Liquid
[2] = excess molar enthalpy (molar enthalpy of mixing); xn = mol fraction of the nth substance listed; conditions: 298.15 K, 101 kPa, Liquid, Flow calorimetry
[3] = heat capacity at constant pressure per volume; conditions: 298.15 K; 101.33 kPa; Liquid
[4] = heat capacity at constant pressure per volume; xn = mol fraction of the nth substance listed; conditions: 298.15 K, 101 kPa, Liquid

CCCCCCCCCCO [decan-1-ol] + C1CCOCC1
Conditions	excess molar enthalpy [kJ/mol]	mass density [kg/m3]
[1], x2 = 0.1017	–	828.6
[1], x2 = 0.2006	–	831.38
[1], x2 = 0.2971	–	834.48
[1], x2 = 0.3995	–	838.2
[1], x2 = 0.4943	–	842.21
[1], x2 = 0.5984	–	847.35
[1], x2 = 0.6979	–	853.12
[1], x2 = 0.8001	–	860.13
[1], x2 = 0.9009	–	868.56
[2], x2 = 0.179	0.586	–
[2], x2 = 0.329	0.959	–
[2], x2 = 0.456	1.13	–
[2], x2 = 0.566	1.18	–
[2], x2 = 0.662	1.13	–
[2], x2 = 0.746	1.02	–
[2], x2 = 0.82	0.83	–
[2], x2 = 0.887	0.593	–
[2], x2 = 0.946	0.314	–

C1CCOCC1 [tetrahydropyran]
Conditions	heat capacity [J/K/m3]
[3]	1519000

C1CCOCC1 [tetrahydropyran] + CCCCO
Conditions	heat capacity, [4] [J/K/m3]	mass density, [1] [kg/m3]
x1 = 0.0511	1899000	809.59
x1 = 0.0976	1882000	813.23
x1 = 0.1996	1847000	821.04
x1 = 0.301	1811000	828.64
x1 = 0.3987	1778000	835.87
x1 = 0.499	1739000	843.12
x1 = 0.598	1699000	850.26
x1 = 0.6994	1655000	857.46
x1 = 0.7998	1610000	864.53
x1 = 0.8998	1563000	871.67
x1 = 0.9501	1541000	875.22

CCCCCCCO [heptan-1-ol] + C1CCCCC1
[2]
Conditions	excess molar enthalpy [kJ/mol]
x2 = 0.127	0.191
x2 = 0.246	0.363
x2 = 0.359	0.497
x2 = 0.466	0.594
x2 = 0.567	0.645
x2 = 0.662	0.649
x2 = 0.753	0.607
x2 = 0.839	0.527
x2 = 0.922	0.4

CCCCCCCCCCO [decan-1-ol] + C1CCCCC1
[2]
Conditions	excess molar enthalpy [kJ/mol]
x2 = 0.164	0.29
x2 = 0.306	0.493
x2 = 0.431	0.619
x2 = 0.541	0.683
x2 = 0.638	0.695
x2 = 0.726	0.667
x2 = 0.805	0.604
x2 = 0.876	0.511
x2 = 0.941	0.378

CCCCCO [pentan-1-ol] + C1CCCCC1
[2]
Conditions	excess molar enthalpy [kJ/mol]
x2 = 0.1	0.149
x2 = 0.2	0.29
x2 = 0.3	0.409
x2 = 0.4	0.521
x2 = 0.5	0.599
x2 = 0.6	0.638
x2 = 0.7	0.623
x2 = 0.8	0.556
x2 = 0.9	0.428

CCCCCCCCCO [nonan-1-ol] + C1CCCCC1
[2]
Conditions	excess molar enthalpy [kJ/mol]
x2 = 0.152	0.254
x2 = 0.287	0.447
x2 = 0.409	0.577
x2 = 0.518	0.652
x2 = 0.617	0.674
x2 = 0.707	0.656
x2 = 0.79	0.598
x2 = 0.866	0.501
x2 = 0.936	0.372

C1CCOCC1 [tetrahydropyran] + CCCCCO
Conditions	excess molar enthalpy, [2] [kJ/mol]	heat capacity, [4] [J/K/m3]	mass density, [1] [kg/m3]
x1 = 0.0486	–	1898000	813.55
x1 = 0.0968	–	1881000	816.55
x1 = 0.11	0.328	–	–
x1 = 0.2002	–	1846000	823.07
x1 = 0.217	0.601	–	–
x1 = 0.2987	–	1811000	829.33
x1 = 0.323	0.793	–	–
x1 = 0.3966	–	1776000	835.71
x1 = 0.426	0.916	–	–
x1 = 0.4994	–	1738000	842.54
x1 = 0.526	0.97	–	–
x1 = 0.5993	–	1698000	849.33
x1 = 0.625	0.955	–	–
x1 = 0.6972	–	1657000	856.2
x1 = 0.722	0.863	–	–
x1 = 0.8	–	1610000	863.59
x1 = 0.816	0.689	–	–
x1 = 0.8983	–	1564000	870.89
x1 = 0.909	0.409	–	–
x1 = 0.9495	–	1540000	874.85

CCCCCCCCCO [nonan-1-ol] + C1CCOCC1
Conditions	excess molar enthalpy [kJ/mol]	mass density [kg/m3]
[1], x2 = 0.0965	–	826.81
[1], x2 = 0.1998	–	830.22
[1], x2 = 0.2989	–	833.75
[1], x2 = 0.3822	–	837.11
[1], x2 = 0.497	–	842.35
[1], x2 = 0.5969	–	847.63
[1], x2 = 0.6983	–	853.74
[1], x2 = 0.8	–	860.8
[1], x2 = 0.9002	–	869.06
[2], x2 = 0.166	0.543	–
[2], x2 = 0.309	0.884	–
[2], x2 = 0.434	1.06	–
[2], x2 = 0.544	1.13	–
[2], x2 = 0.641	1.1	–
[2], x2 = 0.729	0.995	–
[2], x2 = 0.807	0.825	–
[2], x2 = 0.877	0.598	–
[2], x2 = 0.942	0.321	–

C1CCOCC1 [tetrahydropyran] + CCCCCCCCCC
[2]
Conditions	excess molar enthalpy [kJ/mol]
x1 = 0.182	0.38
x1 = 0.333	0.597
x1 = 0.461	0.691
x1 = 0.571	0.709
x1 = 0.666	0.668
x1 = 0.75	0.591
x1 = 0.823	0.479
x1 = 0.889	0.344
x1 = 0.947	0.179

C1CCOCC1 [tetrahydropyran] + CCCO
Conditions	heat capacity, [4] [J/K/m3]	mass density, [1] [kg/m3]
x1 = 0.0996	1875000	809.78
x1 = 0.1994	1838000	819.29
x1 = 0.2873	1807000	827.18
x1 = 0.3993	1766000	836.57
x1 = 0.4981	1728000	844.4
x1 = 0.6011	1687000	852.07
x1 = 0.7007	1646000	859.15
x1 = 0.7981	1604000	865.77
x1 = 0.9007	1560000	872.46

C1CCOCC1 [tetrahydropyran] + CCCCCCCCO
[1]
Conditions	mass density [kg/m3]
x1 = 0.0533	823.35
x1 = 0.0961	824.78
x1 = 0.198	828.58
x1 = 0.2967	832.64
x1 = 0.4014	837.39
x1 = 0.5	842.3
x1 = 0.599	847.86
x1 = 0.7005	854.23
x1 = 0.7999	861.27
x1 = 0.8989	869.3
x1 = 0.9504	873.97

CCCCCCCO [heptan-1-ol] + C1CCOCC1
[1]
Conditions	mass density [kg/m3]
x2 = 0.0514	820.57
x2 = 0.1047	822.8
x2 = 0.1988	826.97
x2 = 0.2987	831.67
x2 = 0.4018	836.94
x2 = 0.4976	842.18
x2 = 0.6005	848.37
x2 = 0.6985	854.74
x2 = 0.8002	861.99
x2 = 0.8989	869.83
x2 = 0.9487	874.13

C1CCOCC1 [tetrahydropyran] + CCCCCCO
Conditions	heat capacity, [4] [J/K/m3]	mass density, [1] [kg/m3]
x1 = 0.0523	1899000	817.49
x1 = 0.1033	1883000	820.05
x1 = 0.2029	1851000	825.28
x1 = 0.3021	1818000	830.74
x1 = 0.4033	1782000	836.58
x1 = 0.5007	1745000	842.45
x1 = 0.6013	1705000	848.93
x1 = 0.7015	1662000	855.69
x1 = 0.799	1616000	862.7
x1 = 0.8994	1567000	870.44
x1 = 0.9482	1543000	874.45
